{"source": "patent US7314625B2", "about": "(priority 2000, dated 2008)", "test_system": "P. aeruginosa PAK strain", "assay_type": "cell-based", "data": [{"substance": "acetyl-DEQFIPK-NH2 (Ac-DEQFIPK-NH2) [core pilin peptide]", "values": [{"measurement": "reduction of adherence to A549 cells", "value": "approximately 50%"}]}, {"substance": "acetyl-KCTSDQDEQFLPKGCSK-NH2 (Ac-KCTSDQDEQFLPKGCSK-NH2; cysteine pairing not given here) [long pilin peptide]", "values": [{"measurement": "reduction of adherence to A549 cells", "value": "approximately 50%"}]}, {"substance": "acetyl-QIDPEFK-NH2 (Ac-QIDPEFK-NH2) [scrambled peptide]", "values": [{"measurement": "reduction of adherence to A549 cells", "value": "did not interfere with adherence"}]}]}
